Test results as given in ChEMBL document CHEMBL6182924, “Discovery of a Novel and Potent MET Transcription Inhibitor Targeting Promoter G-Quadruplex for the Treatment of NSCLC” (J Med Chem, 2025).
Active and inactive are the calls of the source. The rule behind the calls is not given here.

Key:
NCI-H1975 [1] = experiment: Downregulation of c-Met expression in human NCI-H1975 cells incubated for 72 hrs by Western blot analysis; assay type: functional, cell-based; details: dose <= 1000.0 nM
A549 [2] = experiment: Downregulation of c-Met expression in human A549 cells at 1 uM by Western blot analysis; assay type: functional, cell-based; details: time <= 72.0 hrs
NCI-H1975 [3] = experiment: Downregulation of c-Met mRNA expression in human NCI-H1975 cells at 0.5 to 1 uM incubated for 24 hrs by qRT-PCR analysis; assay type: functional, cell-based; details: dose 0.5-1 µM
A549 [4] = experiment: Downregulation of c-Met mRNA expression in human A549 cells at 0.5 to 1 uM incubated for 24 hrs by qRT-PCR analysis; assay type: functional, cell-based; details: dose 0.5-1 µM
A549 [5] = experiment: Induction of cell cycle arrest in human A549 cells assessed as accumulation of cells at G1 phase at 0.5 uM measured for 24 hrs by PI/Rnase staining based flow cytometry (reference value: 75.2 %); assay type: functional
A549 [6] = experiment: Induction of cell cycle arrest in human A549 cells assessed as accumulation of cells at G2 phase at 1 uM measured for 24 hrs by PI/Rnase staining based flow cytometry (reference value: 13.4 %); assay type: functional
NCI-H1975 [7] = experiment: Induction of cell cycle arrest in human NCI-H1975 cells assessed as accumulation of cells at G2 phase at 0.5 uM measured for 24 hrs by PI/Rnase staining based flow cytometry (reference value: 14.8 %); assay type: functional
NCI-H1975 [8] = experiment: Induction of cell cycle arrest in human NCI-H1975 cells assessed as accumulation of cells at G1 phase at 1 uM measured for 24 hrs by PI/Rnase staining based flow cytometry (reference value: 79.2 %); assay type: functional
NCI-H1975 [9] = experiment: Induction of cell cycle arrest in human NCI-H1975 cells assessed as accumulation of cells at G2 phase at 2 uM measured for 24 hrs by PI/Rnase staining based flow cytometry (reference value: 14.8 %); assay type: functional
A549 [10] = experiment: Induction of apoptosis in human A549 cells assessed as early apoptotic cells at 0.5 uM incubated for 24 hrs by Annexin V-FITC/PI staining based flow cytometry analysis (reference value: 1.73 %); assay type: functional
A549 [11] = experiment: Induction of apoptosis in human A549 cells assessed as necrotic cells at 0.5 uM incubated for 24 hrs by Annexin V-FITC/PI staining based flow cytometry analysis (reference value: 4.37 %); assay type: functional
A549 [12] = experiment: Induction of apoptosis in human A549 cells assessed as early apoptotic cells at 1 uM incubated for 24 hrs by Annexin V-FITC/PI staining based flow cytometry analysis (reference value: 1.73 %); assay type: functional
A549 [13] = experiment: Induction of apoptosis in human A549 cells assessed as late apoptotic cells at 1 uM incubated for 24 hrs by Annexin V-FITC/PI staining based flow cytometry analysis (reference value: 2.56 %); assay type: functional
A549 [14] = experiment: Induction of apoptosis in human A549 cells assessed as necrotic cells at 1 uM incubated for 24 hrs by Annexin V-FITC/PI staining based flow cytometry analysis (reference value: 4.37 %); assay type: functional
A549 [15] = experiment: Induction of apoptosis in human A549 cells assessed as viable cells at 2 uM incubated for 24 hrs by Annexin V-FITC/PI staining based flow cytometry analysis (reference value: 91.3%); assay type: functional; details: read-out: Activity
A549 [16] = experiment: Induction of apoptosis in human A549 cells assessed as late apoptotic cells at 2 uM incubated for 24 hrs by Annexin V-FITC/PI staining based flow cytometry analysis (reference value: 2.56 %); assay type: functional
NCI-H1975 [17] = experiment: Induction of apoptosis in human NCI-H1975 cells assessed as early apoptotic cells at 0.5 uM incubated for 24 hrs by Annexin V-FITC/PI staining based flow cytometry analysis (reference value: 0.35 %); assay type: functional
NCI-H1975 [18] = experiment: Induction of apoptosis in human NCI-H1975 cells assessed as late apoptotic cells at 1 uM incubated for 24 hrs by Annexin V-FITC/PI staining based flow cytometry analysis (reference value: 2.27 %); assay type: functional
NCI-H1975 [19] = experiment: Induction of apoptosis in human NCI-H1975 cells assessed as viable cells at 2 uM incubated for 24 hrs by Annexin V-FITC/PI staining based flow cytometry analysis (reference value: 90.1 %); assay type: functional; details: read-out: Activity
NCI-H1975 [20] = experiment: Induction of apoptosis in human NCI-H1975 cells assessed as late apoptotic cells at 2 uM incubated for 24 hrs by Annexin V-FITC/PI staining based flow cytometry analysis (reference value: 2.27 %); assay type: functional
A549 [21] = experiment: Inhibition of colony formation in human A549 cells incubated for 2 weeks by crystal violet staining based analysis; assay type: functional, cell-based; details: dose 0.5-2 µM
NCI-H1975 [22] = experiment: Inhibition of colony formation in human NCI-H1975 cells incubated for 2 weeks by crystal violet staining based analysis; assay type: functional, cell-based; details: dose 0.5-2 µM
NCI-H1975 [23] = experiment: Inhibition of cell migration in human NCI-H1975 cells incubated for 12 hrs by crystal violet staining based analysis; assay type: functional; details: dose 0.5-2 µM
A549 [24] = experiment: Inhibition of cell invasion in human A549 cells incubated for 12 hrs; assay type: functional, cell-based; details: dose 0.5-2 µM
NCI-H1975 [25] = experiment: Inhibition of cell invasion in human NCI-H1975 cells incubated for 12 hrs; assay type: functional, cell-based; details: dose 0.5-2 µM
A549 [26] = experiment: Antitumor activity against human A549 cells xenografted in BALB/c mouse assessed as tumor growth inhibition at 40 mg/kg, po administered once a day and measured up to 24 days; assay type: functional; details: A549, 576 h, time <= 24 day, read-out: TGI
A549 [27] = experiment: Antitumor activity against human A549 cells xenografted in BALB/c mouse assessed as downregulation of c-MET expression in tumor at 20 mg/kg, po administered once a day and measured for 20 days by Western blot analysis; assay type: functional, organism-based; details: time 20.0 day
[28] = Toxicity in BALB/c mouse xenografted with human A549 cells assessed as heart damage at 20 mg/kg, po administered once a day and measured after 20 days by H and E staining based analysis; assay type: organism-based; details: in vivo, 480 h, time 20 day
[29] = Toxicity in BALB/c mouse xenografted with human A549 cells assessed as heart damage at 40 mg/kg, po administered once a day and measured after 20 days by H and E staining based analysis; assay type: organism-based; details: in vivo, 480 h, time 20 day
[30] = Toxicity in BALB/c mouse xenografted with human A549 cells assessed as liver damage at 20 mg/kg, po administered once a day and measured after 20 days by H and E staining based analysis; assay type: organism-based; details: in vivo, 480 h, time 20 day
[31] = Toxicity in BALB/c mouse xenografted with human A549 cells assessed as kidney damage at 20 mg/kg, po administered once a day and measured after 20 days by H and E staining based analysis; assay type: organism-based; details: in vivo, 480 h, time 20 day
[32] = Toxicity in BALB/c mouse xenografted with human A549 cells assessed as kidney damage at 40 mg/kg, po administered once a day and measured after 20 days by H and E staining based analysis; assay type: organism-based; details: in vivo, 480 h, time 20 day
[33] = Acute toxicity in Sprague-Dawley rat at 500 to 2000 mg/kg, po measured every 2 days; assay type: organism-based; details: in vivo, 48 h, dose 500-2000 mg/kg, time 2 day
[34] = Acute toxicity in Sprague-Dawley rat assessed as heart damage at 500 to 2000 mg/kg, po measured every 2 days by H and E staining based analysis; assay type: organism-based; details: in vivo, 48 h, dose 500-2000 mg/kg, time 2 day
BaF3 = experiment: Antiproliferative activity against mouse BaF3 cells harboring TPR-MET […] mutant incubated for 24 hrs by CCK-8 assay; assay type: functional, cell-based; details: BaF3, 24 h

COc1cccc(-c2ccc(-c3nc4c5cccnc5c5ncccc5c4[nH]3)o2)c1
Activity (NCI-H1975 [1]): Dose-dependent-effect | Activity (A549 [2]): Time-dependent-effect | Activity (NCI-H1975 [3]): Active | Activity (A549 [4]): Active | Activity (A549 [5]): 75.4% | Activity (A549 [6]): 10.4% | Activity (NCI-H1975 [7]): 13% | Activity (NCI-H1975 [8]): 82.1% | Activity (NCI-H1975 [9]): 11% | Activity (A549 [10]): 5.09% | Activity (A549 [11]): 3.79% | Activity (A549 [12]): 6.47% | Activity (A549 [13]): 10.8% | Activity (A549 [14]): 8.81% | viability at 2 µM (A549 [15]): 57.4% | Activity (A549 [16]): 23.5% | Activity (NCI-H1975 [17]): 2.01% | Activity (NCI-H1975 [18]): 10.1% | viability at 2 µM (NCI-H1975 [19]): 79.7% | Activity (NCI-H1975 [20]): 14.2% | inhibition (A549 [21]): Dose-dependent-effect | inhibition (NCI-H1975 [22]): Dose-dependent-effect | inhibition (NCI-H1975 [23]): Dose-dependent-effect | inhibition (A549 [24]): Dose-dependent-effect | inhibition (NCI-H1975 [25]): Dose-dependent-effect | inhibition in vivo at 40 mg/kg (A549 [26]): 62.4% | Activity (A549 [27]): Active | Activity [28]: Non-toxic | Activity [29]: Non-toxic | Activity [30]: Non-toxic | Activity [31]: Non-toxic | Activity [32]: Non-toxic | Activity [33]: Non-toxic | Activity [34]: Non-toxic | IC50 (BaF3): 620 nM
